# PubChem BioAssay AID2060490 (Molecular Pharmacology Branch, DTP, NCI, 2025)
# System: 885512-296-R-J2-PDC complex spheroid viability
# Assay: Anticancer human tumor 885512-296-R-J2-PDC patient-derived breast carcinoma cell line growth inhibition [GQUAD]
# Settings: for IC50: curve of first compound; for viability, T/C: stronger effect = lower value
# Procedure, shortened: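 Viability of tumor cells grown as complex spheroids with endothelial and stromal cells, exposed to drug combinations. Top concentration at or near clinical Cmax (else 10 microM), diluted in half-log increments.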
# [1] = second compound 0.0316 µM, first compound 0.0316 µM
# [2] = second compound 0.0316 µM, first compound 0.316 µM
# [3] = second compound 0.1 µM, first compound 0.0316 µM
# [4] = second compound 0.1 µM, first compound 0.316 µM
# [5] = second compound 0.316 µM, first compound 0.0316 µM
# [6] = second compound 0.316 µM, first compound 0.316 µM
# [7] = second compound 1 µM, first compound 0.0316 µM
# [8] = second compound 1 µM, first compound 0.316 µM
# [9] = second compound 3.16 µM, first compound 0.0316 µM
# [10] = second compound 3.16 µM, first compound 0.316 µM
# [11] = second compound 10 µM, first compound 0.0316 µM
# [12] = second compound 10 µM, first compound 0.316 µM
# [13] = second compound 0.0316 µM, first compound 0.1 µM
# [14] = second compound 0.0316 µM, first compound 1 µM
# [15] = second compound 0.0316 µM, first compound 3.16 µM
# [16] = second compound 0.0316 µM, first compound 10 µM
# [17] = second compound 0.1 µM, first compound 0.1 µM
# [18] = second compound 0.1 µM, first compound 1 µM
# [19] = second compound 0.1 µM, first compound 3.16 µM
# [20] = second compound 0.1 µM, first compound 10 µM
# [21] = second compound 0.316 µM, first compound 0.1 µM
# [22] = second compound 0.316 µM, first compound 1 µM
# [23] = second compound 0.316 µM, first compound 3.16 µM
# [24] = second compound 0.316 µM, first compound 10 µM
# [25] = second compound 1 µM, first compound 0.1 µM
# [26] = second compound 1 µM, first compound 1 µM
# [27] = second compound 1 µM, first compound 3.16 µM
# [28] = second compound 1 µM, first compound 10 µM
# [29] = second compound 3.16 µM, first compound 0.1 µM
# [30] = second compound 3.16 µM, first compound 1 µM
# [31] = second compound 3.16 µM, first compound 3.16 µM
# [32] = second compound 3.16 µM, first compound 10 µM
# [33] = second compound 10 µM, first compound 0.1 µM
# [34] = second compound 10 µM, first compound 1 µM
# [35] = second compound 10 µM, first compound 3.16 µM
# [36] = second compound 10 µM, first compound 10 µM
# 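Further: spheroids exposed to the compounds for one week.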
# 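Wherever viability, T/C is given: percent of tumor spheroid viability relative to DMSO vehicle control wells.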
structure (smiles),measurement,setting,value
Cc1[nH]c2ccccc2c1CCNCc1ccc(/C=C/C(=O)NO)cc1 + Cc1[nH]c2ccc(F)cc2c1-c1nc2c3cccnc3c3ncccc3c2[nH]1,IC50,second compound 0.0316 µM,> 316 nM
same,IC50,second compound 0.1 µM,> 316 nM
same,IC50,second compound 0.316 µM,> 316 nM
same,IC50,second compound 1 µM,> 316 nM
same,IC50,second compound 3.16 µM,< 0.999 nM
same,IC50,second compound 10 µM,< 0.999 nM
same,"viability, T/C","second compound 0.0316 µM, first compound 0.000999 µM",99.3%
same,"viability, T/C","second compound 0.0316 µM, first compound 0.00316 µM",114%
same,"viability, T/C","second compound 0.0316 µM, first compound 0.00999 µM",97.1%
same,"viability, T/C",[1],94.9%
same,"viability, T/C","second compound 0.0316 µM, first compound 0.0999 µM",100%
same,"viability, T/C",[2],78.2%
same,"viability, T/C","second compound 0.1 µM, first compound 0.000999 µM",99.7%
same,"viability, T/C","second compound 0.1 µM, first compound 0.00316 µM",97.1%
same,"viability, T/C","second compound 0.1 µM, first compound 0.00999 µM",94.7%
same,"viability, T/C",[3],92.1%
same,"viability, T/C","second compound 0.1 µM, first compound 0.0999 µM",103%
same,"viability, T/C",[4],82.4%
same,"viability, T/C","second compound 0.316 µM, first compound 0.000999 µM",92.5%
same,"viability, T/C","second compound 0.316 µM, first compound 0.00316 µM",88.4%
same,"viability, T/C","second compound 0.316 µM, first compound 0.00999 µM",90.2%
same,"viability, T/C",[5],87.3%
same,"viability, T/C","second compound 0.316 µM, first compound 0.0999 µM",85.7%
same,"viability, T/C",[6],69.5%
same,"viability, T/C","second compound 1 µM, first compound 0.000999 µM",75.9%
same,"viability, T/C","second compound 1 µM, first compound 0.00316 µM",53.9%
same,"viability, T/C","second compound 1 µM, first compound 0.00999 µM",62.3%
same,"viability, T/C",[7],65.9%
same,"viability, T/C","second compound 1 µM, first compound 0.0999 µM",53.7%
same,"viability, T/C",[8],56.4%
same,"viability, T/C","second compound 3.16 µM, first compound 0.000999 µM",5.78%
same,"viability, T/C","second compound 3.16 µM, first compound 0.00316 µM",9.7%
same,"viability, T/C","second compound 3.16 µM, first compound 0.00999 µM",7.26%
same,"viability, T/C",[9],6.61%
same,"viability, T/C","second compound 3.16 µM, first compound 0.0999 µM",5.06%
same,"viability, T/C",[10],4.88%
same,"viability, T/C","second compound 10 µM, first compound 0.000999 µM",1.15%
same,"viability, T/C","second compound 10 µM, first compound 0.00316 µM",1.37%
same,"viability, T/C","second compound 10 µM, first compound 0.00999 µM",1.33%
same,"viability, T/C",[11],2.33%
same,"viability, T/C","second compound 10 µM, first compound 0.0999 µM",1.05%
same,"viability, T/C",[12],1.69%
COc1cc(C2c3cc4c(cc3C(OC3OC5COC(C)OC5C(O)C3O)C3COC(=O)C23)OCO4)cc(OC)c1O (stereo unspecified) + CN(C)c1ccc(Nc2c3ccc(NC(=O)CCN4CCCC4)cc3nc3cc(NC(=O)CCN4CCCC4)ccc23)cc1,IC50,second compound 0.0316 µM,590 nM
same,IC50,second compound 0.1 µM,641 nM
same,IC50,second compound 0.316 µM,584 nM
same,IC50,second compound 1 µM,574 nM
same,IC50,second compound 3.16 µM,614 nM
same,IC50,second compound 10 µM,< 31.6 nM
same,"viability, T/C",[1],106%
same,"viability, T/C",[13],96.7%
same,"viability, T/C",[2],73%
same,"viability, T/C",[14],30.5%
same,"viability, T/C",[15],13.4%
same,"viability, T/C",[16],8.11%
same,"viability, T/C",[3],106%
same,"viability, T/C",[17],94.4%
same,"viability, T/C",[4],77.1%
same,"viability, T/C",[18],33.1%
same,"viability, T/C",[19],13.5%
same,"viability, T/C",[20],9.28%
same,"viability, T/C",[5],100%
same,"viability, T/C",[21],111%
same,"viability, T/C",[6],73.3%
same,"viability, T/C",[22],28.8%
same,"viability, T/C",[23],13%
same,"viability, T/C",[24],7.51%
same,"viability, T/C",[7],88.4%
same,"viability, T/C",[25],97.5%
same,"viability, T/C",[8],72.5%
same,"viability, T/C",[26],28.2%
same,"viability, T/C",[27],13.1%
same,"viability, T/C",[28],7.5%
same,"viability, T/C",[9],88.5%
same,"viability, T/C",[29],83.8%
same,"viability, T/C",[10],78.8%
same,"viability, T/C",[30],28.8%
same,"viability, T/C",[31],14.4%
same,"viability, T/C",[32],10.3%
same,"viability, T/C",[11],18.7%
same,"viability, T/C",[33],24%
same,"viability, T/C",[12],22.1%
same,"viability, T/C",[34],11.4%
same,"viability, T/C",[35],10.1%
same,"viability, T/C",[36],8.35%
C=CCn1c(=O)c2cnc(Nc3ccc(N4CCN(C)CC4)cc3)nc2n1-c1cccc(C(C)(C)O)n1 + Cc1cnc(CNC(=O)c2c(=O)c3ccc(N4CCCN(C)CC4)nc3n3c2sc2ccccc23)cn1,IC50,second compound 0.0316 µM,198 nM
same,IC50,second compound 0.1 µM,53.1 nM
same,IC50,second compound 0.316 µM,< 31.6 nM
same,IC50,second compound 1 µM,< 31.6 nM
same,IC50,second compound 3.16 µM,< 31.6 nM
same,IC50,second compound 10 µM,< 31.6 nM
same,"viability, T/C",[1],91.2%
same,"viability, T/C",[13],80.3%
same,"viability, T/C",[2],29.2%
same,"viability, T/C",[14],7.28%
same,"viability, T/C",[15],2.83%
same,"viability, T/C",[16],2.53%
same,"viability, T/C",[3],58.3%
same,"viability, T/C",[17],39.6%
same,"viability, T/C",[4],19.6%
same,"viability, T/C",[18],6.62%
same,"viability, T/C",[19],2.73%
same,"viability, T/C",[20],3.18%
same,"viability, T/C",[5],21.2%
same,"viability, T/C",[21],16.4%
same,"viability, T/C",[6],12%
same,"viability, T/C",[22],7.07%
same,"viability, T/C",[23],3%
same,"viability, T/C",[24],3.66%
same,"viability, T/C",[7],22.6%
same,"viability, T/C",[25],16.2%
same,"viability, T/C",[8],10.8%
same,"viability, T/C",[26],4.65%
same,"viability, T/C",[27],2.76%
same,"viability, T/C",[28],2.44%
same,"viability, T/C",[9],21.4%
same,"viability, T/C",[29],12.4%
same,"viability, T/C",[10],6.15%
same,"viability, T/C",[30],0.28%
same,"viability, T/C",[31],0.16%
same,"viability, T/C",[32],0.17%
same,"viability, T/C",[11],0.12%
same,"viability, T/C",[33],0.16%
same,"viability, T/C",[12],0.16%
same,"viability, T/C",[34],0.15%
same,"viability, T/C",[35],0.81%
same,"viability, T/C",[36],0.81%
